In paper PMC9115112, “A2B adenosine receptor antagonists rescue lymphocyte activity in adenosine-producing patient-derived cancer models” (Journal for Immunotherapy of Cancer, 2022):

Tests used:
[1] = target: T1, hA2B (A2BAR) (Homo sapiens, UniProt P29275); assay: cAMP assay, NECA-stimulated, HEK-293 cells with transfected A2BAR; format: cell-based; settings: n=3, read-out: Kb hA2B (cAMP production)
T1 construct: expressed in transfected cells; host or cells: HEK-293
T1 sequence (P29275 1-332): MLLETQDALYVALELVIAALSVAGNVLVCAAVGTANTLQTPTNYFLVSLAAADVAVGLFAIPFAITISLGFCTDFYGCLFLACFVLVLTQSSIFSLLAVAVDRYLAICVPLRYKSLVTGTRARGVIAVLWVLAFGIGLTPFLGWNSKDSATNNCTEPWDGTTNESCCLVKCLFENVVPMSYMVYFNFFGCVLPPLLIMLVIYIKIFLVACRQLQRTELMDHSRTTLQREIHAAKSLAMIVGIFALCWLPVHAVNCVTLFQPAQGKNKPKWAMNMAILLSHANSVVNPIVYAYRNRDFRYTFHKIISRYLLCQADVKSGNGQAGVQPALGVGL
Method: Assays were performed in transfected A2BAR using a cyclic AMP (cAMP) enzyme immunoassay kit (Amersham Biosciences) following previously described protocols.[28 30] HEK-293 cells were seeded (10,000 cells/well) in 96-well culture plates and incubated at 37°C in an atmosphere with 5% CO2 in Eagle’s Medium Nutrient Mixture F-12 (EMEM F-12), containing 10% fetal calf serum (FCS) and 1% L-Glutamine. Cells were washed three times with 200 µL assay medium (EMEM-F12 and 25 mM HEPES pH=7.4) and pre-incubated with assay medium containing 30 µM rolipram and test compounds at 37°C for 15 min. Ten µM NECA was incubated for 15 min at 37°C (total incubation time 30 min). Reaction was stopped with lysis buffer supplied in the kit and the enzyme immunoassay was carried out for detection of intracellular cAMP at 450 nm in an Ultra Evolution detector (Tecan). The dose-response curve of NECA-elicited cAMP formation was used to determine the initial choice of A2BAR antagonist concentration (online supplemental figure 2).

[2] = tested on: breast cancer TILs against autologous tumor cells; assay: Chromium (51Cr) release cytotoxicity assay, breast cancer TILs; format: cell-based, human; settings: synthetic ADO, 48 hours
Method: Chromium (51Cr) release cytotoxicity assay
Chromium (51Cr) release assay was used to measure the autologous TILs-mediated cytotoxicity against the established patient-derived breast and […] cell lines. Briefly, breast and sarcoma tumor cells were labelled with 51Cr (PerkinElmer) as target cells and seeded on 96-well V-bottom plate (Corning) at 5 000cells/well. Effector TILs were added at the indicated Effector: Target (E:T) ratios. The supernatants were collected carefully into LUMA plates (PerkinElmer) after 24 and 48 hours of co-culture. After drying overnight, radioactivity of the plate was read with MicroBeta2 (PerkinElmer).
Relative adenosine production assay
An ectonucleotidase CD73 assay was optimized to measure the relative ADO production based on competitive AMP blockade and presence of CD73+ cells. Day five patient-derived sarcoma spheroids were digested and split into triplicates in X-VIVO20 and 1% PS culture media with an excessive amount of AMP at 0.4mM (Sigma-Aldrich) incubated for 30 minutes.
After 1500 RPM was applied for three minutes, 25 μL supernatant were removed and mixed with 25 μL of 200 μM ATP (Sigma-Aldrich) in the same media. 25 μL of this mixture was added to a white opaque OptiPlate (PerkinElmer) containing 25 μL Cell-Titer Glo reagent (Promega, US). Relative luminescence unit (RLU) can be read on SPARK 10M plate reader with an integration time of 100ms. […]

[3] = target: T2, human A1AR (Homo sapiens, UniProt P30542); assay: Radioligand binding, human A1AR ([3H]DPCPX, transfected CHO cells); settings: displacement of [3H]DPCPX, n=3, racemic mixtures
T2 construct: expressed in transfected cells; host or cells: CHO
T2 sequence (P30542 1-326): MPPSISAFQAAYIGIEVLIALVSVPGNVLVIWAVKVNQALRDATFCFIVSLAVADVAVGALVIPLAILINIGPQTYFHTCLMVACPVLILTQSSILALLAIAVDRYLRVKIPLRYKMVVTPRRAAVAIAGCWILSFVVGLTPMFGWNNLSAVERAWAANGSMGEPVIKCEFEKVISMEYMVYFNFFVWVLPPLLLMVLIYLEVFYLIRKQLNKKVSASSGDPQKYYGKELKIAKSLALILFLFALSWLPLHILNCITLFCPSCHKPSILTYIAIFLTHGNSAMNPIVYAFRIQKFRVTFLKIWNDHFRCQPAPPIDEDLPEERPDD
Method: (§1) The affinity and selectivity profiles of the ligands obtained was studied in vitro, radioligand binding assays, at the four human specific ARs subtypes, using experimental protocols previously described.[28–30] All ligands were prepared and tested as racemic mixtures. […] Non-specific binding was determined in the presence of R-PIA 10 µM for A1AR, NECA 50 µM for A2AAR, NECA 400 μΜ for A2BAR and R-PIA 100 μΜ for A3AR.

[4] = target: T3, human A3AR (Homo sapiens, UniProt P0DMS8); assay: Radioligand binding, human A3AR ([3H]NECA, transfected HeLa cells); settings: displacement of [3H]NECA, n=3, racemic mixtures
T3 construct: expressed in transfected cells; host or cells: HeLa
T3 sequence (P0DMS8 1-318): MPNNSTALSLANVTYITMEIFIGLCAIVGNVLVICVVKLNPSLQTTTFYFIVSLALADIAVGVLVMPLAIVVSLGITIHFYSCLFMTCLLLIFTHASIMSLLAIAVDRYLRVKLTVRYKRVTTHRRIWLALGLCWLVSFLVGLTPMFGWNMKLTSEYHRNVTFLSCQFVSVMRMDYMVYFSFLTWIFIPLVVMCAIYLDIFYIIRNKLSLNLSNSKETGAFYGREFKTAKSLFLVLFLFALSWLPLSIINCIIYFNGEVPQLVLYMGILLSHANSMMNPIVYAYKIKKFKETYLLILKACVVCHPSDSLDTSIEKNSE
Method: as §1

| Kb [1] | Ki hA1 ([3]; human CHO cells) | Ki hA3 [4] | Ki ([3]; transfected CHO cells, read-out: Ki hA1) | Ki ([4]; read-out: Ki hA3) | Compound | Rescue of killing of breast cancer TILs against autologous tumor cells [2] |
| --- | --- | --- | --- | --- | --- | --- |
| 0.027 µM |  |  |  |  | CC1=C(C(=O)OC(C)C)C(c2ccco2)n2c(nc3ccccc32)N1 (centres unmarked) [ISAM-140, isopropyl 4-(furan-2-yl)−2-methyl-1,4-dihydrobenzo[4 5] imidazo[1,2 a]pyrimidine-3-carboxylate] |  |
|  | devoid of affinity | devoid of affinity |  |  | CC1=C(C(=O)OC(C)C)C(c2ccoc2)n2c(nc3cc(Cl)ccc32)N1 (centres unmarked) [ISAM-M89A] | rescued killing |
| 0.00615 µM |  |  | > 1 µM | > 1 µM | CC1=C(C(=O)OC(C)C)C(c2ccco2)n2c(nc3ccccc32)N1Cc1ccccc1F (centres unmarked) [ISAM-R56A] | rescued killing |
